From patent publication US20240353338A1 (priority 2023, published 2024)

Test system: early Delta variant of SARS-CoV-2
Format: cell-based

SMILES: C[C@@H](OC(C)(C)C)[C@H](NC(=O)OCc1ccccc1)C(=O)N[C@@H](CC1CCCCC1)C(=O)N[C@H](C=O)C[C@@H]1CCNC1=O [MPI8]
- antiviral effectiveness (virus growth by reverse transcriptase quantitative PCR): inhibition of virus growth
